Assay results: patent publication US20230257396A1, “MACROCYCLES AND THEIR USE” (BLOSSOMHILL THERAPEUTICS, INC., priority 2020, published 2023)

Columns and labels:
Assay in all cases: KINOMEscan kinase binding assay (Eurofins/DiscoveRx), % Ctrl
Details in all cases: 1 μM
kinases [1] = biological target: T1, kinases (Homo sapiens, UniProt P36888, D835V)
T1 construct: purchased Eurofins/DiscoveRx; host or cells: E. coli BL21-derived host (T7 phage display) for most kinases; HEK-293 for the rest
T1 sequence (P36888 27-993 D835V): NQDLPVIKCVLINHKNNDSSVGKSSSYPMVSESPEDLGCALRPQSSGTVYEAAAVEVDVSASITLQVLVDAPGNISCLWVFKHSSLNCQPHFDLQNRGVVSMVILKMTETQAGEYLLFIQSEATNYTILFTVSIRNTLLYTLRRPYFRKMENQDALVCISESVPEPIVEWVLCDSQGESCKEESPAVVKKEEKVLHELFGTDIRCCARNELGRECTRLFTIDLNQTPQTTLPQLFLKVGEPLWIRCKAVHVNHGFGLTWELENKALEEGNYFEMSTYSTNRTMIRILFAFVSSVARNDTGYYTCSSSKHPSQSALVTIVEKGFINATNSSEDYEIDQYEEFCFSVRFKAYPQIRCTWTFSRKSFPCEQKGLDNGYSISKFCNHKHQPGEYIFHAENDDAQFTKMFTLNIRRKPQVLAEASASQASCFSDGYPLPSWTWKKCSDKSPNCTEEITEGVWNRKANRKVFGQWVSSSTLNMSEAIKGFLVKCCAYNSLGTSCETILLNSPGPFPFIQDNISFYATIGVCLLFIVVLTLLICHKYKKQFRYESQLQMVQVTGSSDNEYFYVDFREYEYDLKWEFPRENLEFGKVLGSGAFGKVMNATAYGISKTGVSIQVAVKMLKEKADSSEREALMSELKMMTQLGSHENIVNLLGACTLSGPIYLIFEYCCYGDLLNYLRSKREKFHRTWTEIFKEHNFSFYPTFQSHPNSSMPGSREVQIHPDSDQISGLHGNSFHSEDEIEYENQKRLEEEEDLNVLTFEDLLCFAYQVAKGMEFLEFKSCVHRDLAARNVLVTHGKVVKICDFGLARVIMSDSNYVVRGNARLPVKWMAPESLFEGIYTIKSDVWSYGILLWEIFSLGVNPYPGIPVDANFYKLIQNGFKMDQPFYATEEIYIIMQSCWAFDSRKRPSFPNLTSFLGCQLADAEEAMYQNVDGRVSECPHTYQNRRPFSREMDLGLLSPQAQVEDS
In short: (§1)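 Read-out is qPCR of kinase eluted from ligand-coated streptavidin beads after 1 h room-temperature competition with test compound. Values are % Ctrl at the tested concentration, lower meaning tighter binding.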

kinases [2] = biological target: T2, kinases (Homo sapiens, UniProt P10721, V559D/V654A)
T2 construct: purchased Eurofins/DiscoveRx; host or cells: E. coli BL21-derived host (T7 phage display) for most kinases; HEK-293 for the rest
In short: as §1

kinases [3] = biological target: T3, kinases (Homo sapiens, UniProt P10721)
T3 construct: purchased Eurofins/DiscoveRx; host or cells: E. coli BL21-derived host (T7 phage display) for most kinases; HEK-293 for the rest
In short: as §1

kinases [4] = biological target: T4, kinases (Homo sapiens, UniProt P00519, F317L)
T4 construct: purchased Eurofins/DiscoveRx; host or cells: E. coli BL21-derived host (T7 phage display) for most kinases; HEK-293 for the rest
In short: as §1

kinases [5] = biological target: T5, kinases (Homo sapiens, UniProt P09619)
T5 construct: purchased Eurofins/DiscoveRx; host or cells: E. coli BL21-derived host (T7 phage display) for most kinases; HEK-293 for the rest
In short: as §1

[6] = target ABL1(F317L)-nonphosphorylated
[7] = target ABL1(F317L)-phosphorylated

T5 sequence (P09619 33-1106): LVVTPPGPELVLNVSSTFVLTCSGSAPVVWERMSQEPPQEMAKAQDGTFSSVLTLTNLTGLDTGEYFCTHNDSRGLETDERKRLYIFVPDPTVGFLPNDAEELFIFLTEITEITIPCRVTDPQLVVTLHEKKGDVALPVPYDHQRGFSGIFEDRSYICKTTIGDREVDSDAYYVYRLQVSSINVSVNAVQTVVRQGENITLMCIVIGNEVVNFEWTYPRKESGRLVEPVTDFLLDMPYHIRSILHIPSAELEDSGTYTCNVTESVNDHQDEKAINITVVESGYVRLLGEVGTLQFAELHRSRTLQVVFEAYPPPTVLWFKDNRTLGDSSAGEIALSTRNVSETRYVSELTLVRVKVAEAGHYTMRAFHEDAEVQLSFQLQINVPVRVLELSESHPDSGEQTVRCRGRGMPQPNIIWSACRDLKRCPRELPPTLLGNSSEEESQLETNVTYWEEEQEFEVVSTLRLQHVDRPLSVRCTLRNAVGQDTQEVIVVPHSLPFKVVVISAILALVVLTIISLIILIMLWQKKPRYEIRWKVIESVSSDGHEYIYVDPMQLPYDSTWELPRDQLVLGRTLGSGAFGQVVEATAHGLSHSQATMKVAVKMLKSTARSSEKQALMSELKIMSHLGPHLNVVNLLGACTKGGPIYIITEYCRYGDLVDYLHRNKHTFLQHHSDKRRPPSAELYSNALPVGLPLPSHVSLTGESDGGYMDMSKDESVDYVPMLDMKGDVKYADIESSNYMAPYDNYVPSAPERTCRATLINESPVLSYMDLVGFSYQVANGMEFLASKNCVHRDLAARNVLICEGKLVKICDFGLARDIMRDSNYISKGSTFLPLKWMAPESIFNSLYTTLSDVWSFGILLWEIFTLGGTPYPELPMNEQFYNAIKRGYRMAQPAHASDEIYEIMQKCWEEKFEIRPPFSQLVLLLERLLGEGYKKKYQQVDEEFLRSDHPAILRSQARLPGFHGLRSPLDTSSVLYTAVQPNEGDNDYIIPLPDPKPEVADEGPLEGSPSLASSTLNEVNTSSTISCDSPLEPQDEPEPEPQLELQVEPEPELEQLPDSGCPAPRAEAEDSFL
T2 sequence (P10721 26-976 V559D/V654A): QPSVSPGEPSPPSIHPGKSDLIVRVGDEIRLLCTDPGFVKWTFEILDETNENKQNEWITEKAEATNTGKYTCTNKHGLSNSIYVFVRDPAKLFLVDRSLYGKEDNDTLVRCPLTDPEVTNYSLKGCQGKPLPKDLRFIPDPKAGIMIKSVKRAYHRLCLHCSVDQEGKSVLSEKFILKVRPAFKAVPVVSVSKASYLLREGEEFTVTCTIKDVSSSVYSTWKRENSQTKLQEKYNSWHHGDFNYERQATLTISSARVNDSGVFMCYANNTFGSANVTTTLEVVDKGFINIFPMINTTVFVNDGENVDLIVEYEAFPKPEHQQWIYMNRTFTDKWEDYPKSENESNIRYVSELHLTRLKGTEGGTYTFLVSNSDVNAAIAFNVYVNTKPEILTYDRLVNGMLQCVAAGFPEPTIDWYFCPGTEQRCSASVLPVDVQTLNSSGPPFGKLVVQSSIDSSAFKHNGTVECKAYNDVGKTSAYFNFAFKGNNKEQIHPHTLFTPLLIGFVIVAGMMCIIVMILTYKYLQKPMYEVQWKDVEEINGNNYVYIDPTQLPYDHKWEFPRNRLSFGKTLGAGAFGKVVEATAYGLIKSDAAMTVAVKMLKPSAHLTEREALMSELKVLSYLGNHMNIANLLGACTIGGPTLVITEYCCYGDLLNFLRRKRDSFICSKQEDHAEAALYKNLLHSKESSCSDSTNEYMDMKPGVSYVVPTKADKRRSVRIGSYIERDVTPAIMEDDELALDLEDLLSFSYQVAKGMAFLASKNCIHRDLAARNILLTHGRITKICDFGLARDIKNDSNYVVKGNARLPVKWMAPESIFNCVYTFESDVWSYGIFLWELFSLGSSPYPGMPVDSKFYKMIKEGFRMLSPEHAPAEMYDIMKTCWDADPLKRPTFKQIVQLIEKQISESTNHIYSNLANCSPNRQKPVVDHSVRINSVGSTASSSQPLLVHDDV
T4 sequence (P00519 whole entry F317L): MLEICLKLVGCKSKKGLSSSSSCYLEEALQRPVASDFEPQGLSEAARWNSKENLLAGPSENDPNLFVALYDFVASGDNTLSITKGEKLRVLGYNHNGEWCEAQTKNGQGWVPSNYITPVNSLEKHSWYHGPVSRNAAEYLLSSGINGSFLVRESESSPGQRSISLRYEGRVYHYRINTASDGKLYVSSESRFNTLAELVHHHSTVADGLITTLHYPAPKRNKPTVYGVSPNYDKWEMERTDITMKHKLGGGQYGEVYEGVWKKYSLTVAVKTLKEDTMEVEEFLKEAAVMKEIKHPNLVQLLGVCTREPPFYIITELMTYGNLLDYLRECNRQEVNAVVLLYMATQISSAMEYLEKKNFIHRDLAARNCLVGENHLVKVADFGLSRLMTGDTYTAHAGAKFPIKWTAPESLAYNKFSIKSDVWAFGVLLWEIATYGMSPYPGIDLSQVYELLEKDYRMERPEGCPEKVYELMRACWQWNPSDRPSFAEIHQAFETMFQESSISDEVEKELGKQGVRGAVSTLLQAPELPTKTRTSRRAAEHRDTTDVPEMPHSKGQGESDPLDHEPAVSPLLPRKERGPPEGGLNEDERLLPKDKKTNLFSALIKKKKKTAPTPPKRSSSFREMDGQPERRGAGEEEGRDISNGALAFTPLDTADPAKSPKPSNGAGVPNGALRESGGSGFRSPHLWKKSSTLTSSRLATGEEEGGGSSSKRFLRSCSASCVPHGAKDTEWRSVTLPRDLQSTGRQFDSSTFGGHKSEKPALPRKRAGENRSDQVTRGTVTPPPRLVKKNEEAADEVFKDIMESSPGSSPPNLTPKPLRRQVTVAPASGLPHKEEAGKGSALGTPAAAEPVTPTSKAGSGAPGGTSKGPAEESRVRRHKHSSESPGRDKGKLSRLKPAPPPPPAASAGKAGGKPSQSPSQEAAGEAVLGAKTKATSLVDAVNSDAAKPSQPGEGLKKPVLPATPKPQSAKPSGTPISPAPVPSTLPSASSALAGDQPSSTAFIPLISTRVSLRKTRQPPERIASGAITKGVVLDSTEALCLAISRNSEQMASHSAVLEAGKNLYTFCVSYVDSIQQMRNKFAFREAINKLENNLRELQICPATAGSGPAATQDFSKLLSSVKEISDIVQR
T3 sequence (P10721 26-976): as the sequence (P10721 26-976 V559D/V654A) above, with D534V, A629V counted along it

| Compound | % Ctrl, FLT3(D835V) (kinases [1]; FLT3(D835V)) | % Ctrl, KIT(V559D, V654A) (kinases [2]; KIT(V559D, V654A)) | % Ctrl, KIT (kinases [3]; KIT) | % Ctrl, KIT-autoinhibited (kinases [3]; KIT-autoinhibited) | % Ctrl, ABL1(F317L)-nonphosphorylated (kinases [4]; ABL1(F317L)-nonphosphorylated) | % Ctrl, ABL1(F317L)-phosphorylated (kinases [4]; ABL1(F317L)-phosphorylated) | % Ctrl, PDGFRB (kinases [5]; PDGFRB) | % Ctrl, FLT3(D835V) (kinases [1]; target FLT3(D835V)) | % Ctrl, KIT(V559D, V654A) (kinases [2]; target KIT(V559D, V654A)) | % Ctrl, KIT-autoinhibited (kinases [3]; target KIT-autoinhibited) | % Ctrl, KIT (kinases [3]; target KIT) | % Ctrl, ABL1(F317L)-nonphosphorylated (kinases [4]; [6]) | % Ctrl, ABL1(F317L)-phosphorylated (kinases [4]; [7]) | % Ctrl, PDGFRB (kinases [5]; target PDGFRB) |
| --- | --- | --- | --- | --- | --- | --- | --- | --- | --- | --- | --- | --- | --- | --- |
| Cc1cc2c([nH]1)/C=C1\C(=O)Nc3ccc(cc31)OCCOCCNC2=O [Ex. 129, [16a(17)Z]-2-methyl-6,7,9,10-tetrahydro-1H-12,14-(ethanediylidene)dipyrrolo[3,2-i:3′,4′-l][1,4,7]dioxazacyclopentadecine-4,16(5H,15H)-dione] | 17 % Ctrl | 98 % Ctrl | 100 % Ctrl | 78 % Ctrl | 93 % Ctrl | 79 % Ctrl | 100 % Ctrl | – | – | – | – | – | – | – |
| Cc1cc2c([nH]1)/C=C1\C(=O)Nc3cc(Cl)c(cc31)OCCOCCN(C)C2=O [Ex. 131, [16a(17)Z]-19-chloro-2,5-dimethyl-6,7,9,10-tetrahydro-1H-12,14-(ethanediylidene)dipyrrolo[3,2-i:3′,4′-l][1,4,7]dioxazacyclopentadecine-4,16(5H,15H)-dione] | 0 % Ctrl | 12 % Ctrl | 1.1 % Ctrl | 13 % Ctrl | 0 % Ctrl | 1.3 % Ctrl | 1.4 % Ctrl | – | – | – | – | – | – | – |
| Cc1cc2c([nH]1)/C=C1\C(=O)Nc3cc(Cl)c(cc31)OCCO[C@@H](C(=O)NC1CNC1)CN(C)C2=O [Ex. 133, [7R,16a(17)Z]-N-(azetidin-3-yl)-19-chloro-2,5-dimethyl-4,16-dioxo-4,5,6,7,9,10,15,16-octahydro-1H-12,14-(ethanediylidene)dipyrrolo[3,2-i:3′,4′-l][1,4,7]dioxazacyclopentadecine-7-carboxamide] | 2.3 % Ctrl | 83 % Ctrl | 65 % Ctrl | 75 % Ctrl | 77 % Ctrl | 88 % Ctrl | 60 % Ctrl | – | – | – | – | – | – | – |
| Cc1cc2c([nH]1)/C=C1\C(=O)Nc3cc(Cl)c(cc31)OCCO[C@@H](C(=O)NC1CCNCC1)CN(C)C2=O [Ex. 134, [7R,16a(17)Z]-19-chloro-2,5-dimethyl-4,16-dioxo-N-(piperidin-4-yl)-4,5,6,7,9,10,15,16-octahydro-1H-12,14-(ethaneidylidene)dipyrrolo[3,2-i:3′,4′-l][1,4,7]dioxazacyclopentadecine-7-carboxamide] | 3.9 % Ctrl | 64 % Ctrl | 60 % Ctrl | 94 % Ctrl | 62 % Ctrl | 57 % Ctrl | 66 % Ctrl | – | – | – | – | – | – | – |
| CNC(=O)[C@H]1CN(C)C(=O)c2cc(C)[nH]c2/C=C2\C(=O)Nc3cc(Cl)c(cc32)OCCO1 [Ex. 135, [7R,16a(17)Z]-19-chloro-N,2,5-trimethyl-4,16-dioxo-4,5,6,7,9,10,15,16-octahydro-1H-12,14-(ethanediylidene)dipyrrolo[3,2-i:3′,4′-l][1,4,7]dioxazacyclopentadecine-7-carboxamide] | 6 % Ctrl | 59 % Ctrl | 55 % Ctrl | 82 % Ctrl | 78 % Ctrl | 64 % Ctrl | 80 % Ctrl | – | – | – | – | – | – | – |
| Cc1cc2c([nH]1)/C=C1\C(=O)Nc3cc(Cl)c(cc31)OCCO[C@@H](C(=O)N[C@@H]1CCNC1)CN(C)C2=O [Ex. 136, [7R,16a(17)Z]-19-chloro-2,5-dimethyl-4,16-dioxo-N-[(3R)-pyrrolidin-3-yl]-4,5,6,7,9,10,15,16-octahydro-1H-12,14-(ethanediylidene)dipyrrolo[3,2-i:3′,4′-l][1,4,7]dioxazacyclopentadecine-7-carboxamide] | 2 % Ctrl | 54 % Ctrl | 49 % Ctrl | 83 % Ctrl | 59 % Ctrl | 44 % Ctrl | 38 % Ctrl | – | – | – | – | – | – | – |
| Cc1cc2c([nH]1)/C=C1\C(=O)Nc3cc(Cl)c(cc31)OCCO[C@@H](C(=O)N(C)C)CN(C)C2=O [Ex. 137, [7R,16a(17)Z]-19-chloro-N,N,2,5-tetramethyl-4,16-dioxo-4,5,6,7,9,10,15,16-octahydro-1H-12,14-(ethanediylidene)dipyrrolo[3,2-i:3′,4′-l][1,4,7]dioxazacyclopentadecine-7-carboxamide] | 8.5 % Ctrl | 73 % Ctrl | 90 % Ctrl | 72 % Ctrl | 76 % Ctrl | 67 % Ctrl | 90 % Ctrl | – | – | – | – | – | – | – |
| Cc1cc2c([nH]1)/C=C1\C(=O)Nc3cc(Cl)c(cc31)OCCO[C@@H](C(=O)N1CCN(C)CC1)CN(C)C2=O [Ex. 138, [7R,16a(17)Z]-19-chloro-2,5-dimethyl-7-(4-methylpipearazine-1-carbonyl)-6,7,9,10-tetrahydro-1H-12,14-(ethanediylidene)dipyrrolo[3,2-i:3′,4′-l][1,4,7]dioxazacyclopentadecine-4,16(5H,15H)-dione] | – | – | – | – | – | – | – | 18 % Ctrl | 62 % Ctrl | 96 % Ctrl | 90 % Ctrl | 69 % Ctrl | 75 % Ctrl | 95 % Ctrl |
| Cc1cc2c([nH]1)/C=C1\C(=O)Nc3ccc(cc31)-c1c(noc1C)CNCCN(C)C2=O [Ex. 139, [3a(4)Z]-6,9,16-trimethyl-10,11,12,13-tetrahydro-2H-1,17-(ethanediylidene)[1,2]oxazolo[4,3-m]dipyrrolo[3,2-f:3′,4′-i][1,4]diazacyclopentadecine-3,8(5H,9H)-dione] | – | – | – | – | – | – | – | 0.9 % Ctrl | 75 % Ctrl | 81 % Ctrl | 94 % Ctrl | 48 % Ctrl | 39 % Ctrl | 73 % Ctrl |
| CN1CCOCCOc2cc3c(cc2Cl)NC(=O)/C3=C\c2[nH]ccc2C1=O [Ex. 143, [16a(17)Z]-19-chloro-2,5-dimethyl-6,7,9,10-tetrahydro-1H-12,14-(ethanediylidene)dipyrrolo[3,2-i:3′,4′-l][1,4,7]oxathiazacyclopentadecine-4,16(5H,15H)-dione] | – | – | – | – | – | – | – | 0.3 % Ctrl | 33 % Ctrl | 40 % Ctrl | 9.9 % Ctrl | 17 % Ctrl | 17 % Ctrl | 32 % Ctrl |
